Measurements published in the NIST ThermoML archive (doi:10.1021/je9006597).
± gives the expanded uncertainty stated by the source.

Columns and labels:
[1] = xn = mol fraction of the nth substance listed; conditions: 101 kPa, Liquid; for speed of sound: Pulse-echo method
[2] = 101 kPa, Liquid; for speed of sound: Pulse-echo method

COC(=O)c1ccccc1 [methyl benzoate] + CCCCCC
[1]
Conditions	mass density, 303.15 K [kg/m3]	mass density, 308.15 K [kg/m3]	mass density, 313.15 K [kg/m3]	speed of sound, 303.15 K [m/s]	speed of sound, 308.15 K [m/s]	speed of sound, 313.15 K [m/s]	viscosity, 303.15 K [mPa·s]	viscosity, 308.15 K [mPa·s]	viscosity, 313.15 K [mPa·s]
x1 = 0.1027	692.7 ± 1	689 ± 1	685.1 ± 1	1072 ± 4	1052 ± 4	1036 ± 4	0.324 ± 0.013	0.301 ± 0.013	0.283 ± 0.012
x1 = 0.2076	738 ± 0.9	734.2 ± 0.9	730.3 ± 0.9	1100 ± 5	1080 ± 4	1064 ± 4	0.384 ± 0.015	0.358 ± 0.014	0.335 ± 0.013
x1 = 0.3084	781.4 ± 0.9	777.6 ± 0.9	773.7 ± 0.9	1128 ± 5	1108 ± 5	1096 ± 5	0.441 ± 0.016	0.409 ± 0.016	0.383 ± 0.015
x1 = 0.4087	825.2 ± 0.8	821.3 ± 0.8	817.3 ± 0.8	1160 ± 5	1140 ± 5	1128 ± 5	0.527 ± 0.019	0.487 ± 0.018	0.454 ± 0.017
x1 = 0.5114	869.6 ± 0.7	865.6 ± 0.7	861.7 ± 0.7	1196 ± 5	1180 ± 5	1164 ± 5	0.624 ± 0.022	0.579 ± 0.02	0.542 ± 0.019
x1 = 0.6115	913.1 ± 0.7	909.2 ± 0.7	905.3 ± 0.7	1232 ± 5	1220 ± 5	1200 ± 5	0.751 ± 0.025	0.688 ± 0.023	0.635 ± 0.022
x1 = 0.7092	955.5 ± 0.6	951.5 ± 0.6	947.3 ± 0.6	1272 ± 5	1256 ± 5	1240 ± 5	0.915 ± 0.03	0.844 ± 0.028	0.78 ± 0.026
x1 = 0.8069	997.7 ± 0.5	993.7 ± 0.5	989.7 ± 0.6	1312 ± 5	1292 ± 5	1280 ± 5	1.104 ± 0.035	1.016 ± 0.033	0.935 ± 0.03
x1 = 0.9024	1036.9 ± 0.6	1033 ± 0.6	1029.1 ± 0.6	1344 ± 6	1328 ± 5	1316 ± 5	1.37 ± 0.043	1.238 ± 0.039	1.135 ± 0.036
x1 = 1	1078.3 ± 0.7	1074.4 ± 0.7	1070.3 ± 0.7	1380 ± 6	1364 ± 6	1348 ± 6	1.667 ± 0.051	1.514 ± 0.047	1.376 ± 0.043

CCCCCCCC [octane]
[2]
Conditions	mass density [kg/m3]	speed of sound [m/s]	viscosity [mPa·s]
303.15 K	693.9 ± 1	1148 ± 5	0.491 ± 0.018
308.15 K	690.4 ± 1	1132 ± 5	0.45 ± 0.017
313.15 K	687 ± 1	1112 ± 5	0.415 ± 0.016

COC(=O)c1ccccc1 [methyl benzoate] + CCCCCCCC
[1]
Conditions	mass density, 303.15 K [kg/m3]	mass density, 308.15 K [kg/m3]	mass density, 313.15 K [kg/m3]	speed of sound, 303.15 K [m/s]	speed of sound, 308.15 K [m/s]	speed of sound, 313.15 K [m/s]	viscosity, 303.15 K [mPa·s]	viscosity, 308.15 K [mPa·s]	viscosity, 313.15 K [mPa·s]
x1 = 0.129	732.2 ± 0.9	728.8 ± 0.9	725.3 ± 0.9	1160 ± 5	1140 ± 5	1124 ± 5	0.522 ± 0.019	0.484 ± 0.018	0.447 ± 0.017
x1 = 0.2456	770 ± 0.9	766.4 ± 0.9	762.9 ± 0.9	1180 ± 5	1160 ± 5	1144 ± 5	0.576 ± 0.02	0.529 ± 0.019	0.492 ± 0.018
x1 = 0.3586	809.2 ± 0.8	805.5 ± 0.8	801.8 ± 0.8	1200 ± 5	1180 ± 5	1164 ± 5	0.644 ± 0.022	0.596 ± 0.021	0.556 ± 0.02
x1 = 0.4655	848.4 ± 0.7	844.5 ± 0.8	840.7 ± 0.8	1220 ± 5	1200 ± 5	1184 ± 5	0.727 ± 0.025	0.668 ± 0.023	0.621 ± 0.022
x1 = 0.5672	887.5 ± 0.7	883.6 ± 0.7	879.7 ± 0.7	1240 ± 5	1224 ± 5	1204 ± 5	0.832 ± 0.028	0.762 ± 0.026	0.705 ± 0.024
x1 = 0.662	925.8 ± 0.6	921.9 ± 0.6	918 ± 0.6	1260 ± 5	1248 ± 5	1228 ± 5	0.936 ± 0.03	0.857 ± 0.028	0.788 ± 0.026
x1 = 0.7528	964.3 ± 0.6	960.3 ± 0.6	956.5 ± 0.6	1284 ± 5	1272 ± 5	1252 ± 5	1.084 ± 0.035	0.99 ± 0.032	0.913 ± 0.03
x1 = 0.8382	1002.3 ± 0.5	998.1 ± 0.5	994.3 ± 0.5	1308 ± 5	1300 ± 5	1280 ± 5	1.245 ± 0.039	1.125 ± 0.036	1.033 ± 0.033
x1 = 0.9213	1040.6 ± 0.6	1036.4 ± 0.6	1032.4 ± 0.6	1340 ± 6	1328 ± 5	1308 ± 5	1.434 ± 0.044	1.303 ± 0.041	1.193 ± 0.038
x1 = 1	1078.3 ± 0.7	1074.4 ± 0.7	1070.3 ± 0.7	1380 ± 6	1364 ± 6	1348 ± 6	1.667 ± 0.051	1.514 ± 0.047	1.376 ± 0.043

COC(=O)c1ccccc1 [methyl benzoate]
[2]
Conditions	mass density [kg/m3]	speed of sound [m/s]	viscosity [mPa·s]
303.15 K	1078.3 ± 0.7	1380 ± 6	1.667 ± 0.051
308.15 K	1074.4 ± 0.7	1364 ± 6	1.514 ± 0.047
313.15 K	1070.3 ± 0.7	1348 ± 6	1.376 ± 0.043

CCCCCCC [heptane]
[2]
Conditions	mass density [kg/m3]	speed of sound [m/s]	viscosity [mPa·s]
303.15 K	674.5 ± 1	1116 ± 5	0.375 ± 0.015
308.15 K	670.3 ± 1.1	1092 ± 5	0.35 ± 0.014
313.15 K	667.2 ± 1.1	1072 ± 4	0.325 ± 0.013

CCCCCC [hexane]
[2]
Conditions	mass density [kg/m3]	speed of sound [m/s]	viscosity [mPa·s]
303.15 K	649.8 ± 1.1	1048 ± 4	0.283 ± 0.012
308.15 K	645.9 ± 1.1	1028 ± 4	0.269 ± 0.012
313.15 K	642.2 ± 1.1	1008 ± 4	0.252 ± 0.011
